In general, GI50 refers to the concentration giving 50% growth inhibition.

This is an account of results in ChEMBL document CHEMBL1201862, “PubChem BioAssay data set” (2004).

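Five concentrations, 48 hours, 96-well plates. The concentration for 50% growth inhibition is given as GI50.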 Calls of active or inactive are those of the source. No stated cut-off is given here; in the data, active = GI50 up to about 1.1 µM and inactive = higher.

Among the test systems are SNB-75; SNB-19; SF-539; CAKI-1; HOP-92; 786-0; K562; M14; NCI-H460; UO-31; MOLT-4; IGROV-1; HCC 2998; UACC-62; OVCAR-5; HT-29; OVCAR-3; SF-268.
Assay in all cases: DTP human tumour cell line panel, 48 h

As for `Cc1nc(N)nc(N)c1CCCc1ccccc1`, the GI50 is 38.3 µM (inactive) in the assay on SNB-75; 11.2 µM (inactive) in the assay on SNB-19; 13.9 µM (inactive) with SF-539; 9.25 µM (inactive) in the assay with CAKI-1; 11.6 µM (inactive) in the assay on HOP-92; 3.66 µM (inactive) in the assay on 786-0. In addition, the GI50 was 0.552 µM (active) with K562; 4.78 µM (inactive) in the assay with M14; 3.47 µM (inactive) in the assay with NCI-H460; 20.8 µM (inactive) in the assay with UO-31; 4.07 µM (inactive) with MOLT-4; 6.11 µM (inactive) in the assay on IGROV-1. In addition, the GI50 in the assay with HCC 2998 is 12.5 µM (inactive); in the assay with UACC-62 it was 5.55 µM (inactive); in the assay with OVCAR-5, 15.9 µM (inactive); in the assay on HT-29, 2.15 µM (inactive); in the assay on OVCAR-3, 18.6 µM (inactive); in the assay on SF-268 it was 5.4 µM (inactive).
In the case of `C/C(CCn1[nH]c(=O)ccc1=O)=N\OCCCc1ccccc1`, the GI50 in the assay with SNB-75 is > 100 µM (inactive); with SNB-19 it was > 100 µM (inactive); in the assay with SF-539, > 100 µM (inactive); in the assay on CAKI-1 it was > 100 µM (inactive); with HOP-92, 88.5 µM (inactive); in the assay on 786-0, > 100 µM (inactive). Moreover, the GI50 in the assay on K562, in the assay with M14, with NCI-H460, in the assay on UO-31, with MOLT-4 and in the assay on IGROV-1 was > 100 µM (inactive) each time. The GI50 in the assay on HCC 2998, in the assay with UACC-62, in the assay on OVCAR-5, in the assay with HT-29, with OVCAR-3 and with SF-268 was > 100 µM (inactive) throughout.
On to `O=C(Nc1ccc(Cl)cc1Cl)C1C(=O)N(c2ccc(Cl)cc2Cl)C(=O)/C1=N\Nc1ccc([N+](=O)[O-])cc1[N+](=O)[O-]` (stereo unspecified), for which the GI50 in the assay with SNB-75 is 27.3 µM (inactive); in the assay with SNB-19, 39.1 µM (inactive); with SF-539, 36.6 µM (inactive); with CAKI-1, 54.5 µM (inactive); in the assay with HOP-92, 23.3 µM (inactive); in the assay with 786-0 it was 67.8 µM (inactive). The GI50 in the assay on K562 is 14.7 µM (inactive); in the assay on M14, 52 µM (inactive); in the assay with NCI-H460, 59.8 µM (inactive); in the assay with UO-31, 15.8 µM (inactive); with MOLT-4, 22 µM (inactive); in the assay on IGROV-1 it was 83 µM (inactive). In addition, the GI50 in the assay on HCC 2998 is 37.6 µM (inactive); in the assay on UACC-62, 15.8 µM (inactive); in the assay with OVCAR-5 it was 44.5 µM (inactive); in the assay on HT-29 it was 35.8 µM (inactive); in the assay with OVCAR-3 it was 47.2 µM (inactive); in the assay with SF-268, 22.3 µM (inactive).
In the case of `O=C(CCN1CCN(c2cccc(Cl)c2)CC1)N1CCc2c([nH]c3ccccc23)C1c1cccnc1` (stereo unspecified), the GI50 with SNB-75 was 9.68 µM (inactive); in the assay on SNB-19, 6.82 µM (inactive); in the assay on SF-539, 13.7 µM (inactive); in the assay on CAKI-1, 3.8 µM (inactive); in the assay with HOP-92, 1.9 µM (inactive); in the assay on 786-0, 4.89 µM (inactive). Besides, the GI50 in the assay on K562 is 2.78 µM (inactive); in the assay with M14, 3.37 µM (inactive); in the assay on NCI-H460, 4.05 µM (inactive); in the assay on UO-31, 2.98 µM (inactive); in the assay with MOLT-4, 2.95 µM (inactive); in the assay on IGROV-1, 7.87 µM (inactive). Further, the GI50 with HCC 2998 was 1.91 µM (inactive); in the assay on UACC-62, > 10 µM (inactive); in the assay with OVCAR-5, 4.72 µM (inactive); in the assay with HT-29, 3.56 µM (inactive); with OVCAR-3, 2.47 µM (inactive).
Regarding `N#CCCN(CCC#N)C(=O)c1cccc(C(=O)N(CCC#N)CCC#N)c1`, the GI50 in the assay on SNB-75 was > 44.6 µM (inactive); in the assay with SNB-19 it was > 61 µM (inactive); in the assay with SF-539, > 40.9 µM (inactive); in the assay on CAKI-1 it was > 100 µM (inactive); with HOP-92, > 58.7 µM (inactive); in the assay with 786-0, > 100 µM (inactive). For the same compound, the GI50 was > 100 µM (inactive) in the assay with K562; > 69 µM (inactive) in the assay on M14; > 47.5 µM (inactive) with NCI-H460; > 100 µM (inactive) with UO-31; > 100 µM (inactive) with MOLT-4; > 100 µM (inactive) in the assay on IGROV-1. In addition, the GI50 was > 85.1 µM (inactive) in the assay on HCC 2998; > 37.3 µM (inactive) in the assay on UACC-62; > 100 µM (inactive) with OVCAR-5; 19.1 µM (inactive) in the assay with HT-29; > 100 µM (inactive) in the assay on OVCAR-3; > 100 µM (inactive) with SF-268.
For `O=C1NC(=O)C2C(=O)NC(=O)C1C2Cc1ccco1` (stereo unspecified), the GI50 with SNB-75, in the assay with SNB-19, in the assay with SF-539, with CAKI-1, with HOP-92 and with 786-0 was > 100 µM (inactive) throughout. Moreover, the GI50 with K562, in the assay with M14, in the assay with NCI-H460, with UO-31, in the assay with MOLT-4 and with IGROV-1 was > 100 µM (inactive) each time. Also, the GI50 in the assay on HCC 2998, with UACC-62, in the assay on OVCAR-5, in the assay on HT-29, in the assay with OVCAR-3 and in the assay with SF-268 was > 100 µM (inactive) in each case.
With `Fc1ccc(F)c(C2SCc3nc4ccccc4n32)c1` (stereo unspecified), the GI50 in the assay on SNB-75 was > 100 µM (inactive); in the assay with SNB-19, > 100 µM (inactive); with SF-539, > 100 µM (inactive); in the assay with CAKI-1, 95.5 µM (inactive); with HOP-92 it was 28.5 µM (inactive); with 786-0, > 100 µM (inactive). The GI50 with K562 was 37.1 µM (inactive); with M14 it was 72.1 µM (inactive); in the assay on NCI-H460, 83 µM (inactive); with UO-31, 41.3 µM (inactive); in the assay on MOLT-4, 27.2 µM (inactive); in the assay with IGROV-1, > 100 µM (inactive). In addition, the GI50 was > 100 µM (inactive) with HCC 2998; 91.6 µM (inactive) in the assay with UACC-62; > 100 µM (inactive) with OVCAR-5; 86.3 µM (inactive) in the assay with HT-29; 54.6 µM (inactive) in the assay on OVCAR-3; 66.4 µM (inactive) with SF-268.
On to `CCOC(=O)/C=C1\Nc2ccccc2-n2nnnc21`, for which the GI50 in the assay on SNB-75, in the assay on SNB-19, in the assay on SF-539, in the assay with CAKI-1, with HOP-92 and with 786-0 was > 100 µM (inactive) throughout. Further, the GI50 with K562, in the assay with M14, with NCI-H460, in the assay with UO-31, in the assay on MOLT-4 and in the assay with IGROV-1 was > 100 µM (inactive) throughout. Moreover, the GI50 is > 100 µM (inactive) in the assay with HCC 2998; > 100 µM (inactive) in the assay on UACC-62; > 100 µM (inactive) in the assay on OVCAR-5; 95.5 µM (inactive) in the assay on HT-29; > 100 µM (inactive) in the assay with OVCAR-3; > 100 µM (inactive) with SF-268.
With `CC(=O)C1=C(O)C(N)C2Cc3c(c(O)c4c(O)c(C)ccc4c3C)C(=O)C2(O)C1=O` (stereo unspecified), the GI50 was 3.11 µM (inactive) in the assay with SNB-75; 2.34 µM (inactive) in the assay with SNB-19; 1.35 µM (inactive) in the assay with SF-539; 1.52 µM (inactive) in the assay on CAKI-1; 1.6 µM (inactive) in the assay with HOP-92; 2.58 µM (inactive) in the assay on 786-0. The GI50 was 1.87 µM (inactive) in the assay on K562; 2.47 µM (inactive) with M14; 1.3 µM (inactive) in the assay on NCI-H460; 3.18 µM (inactive) in the assay with UO-31; 1.71 µM (inactive) in the assay with MOLT-4; 2.96 µM (inactive) in the assay with IGROV-1. Moreover, the GI50 was 3.28 µM (inactive) with HCC 2998; 1.25 µM (inactive) in the assay on UACC-62; 4.46 µM (inactive) with OVCAR-5; 2.23 µM (inactive) with HT-29; 1.3 µM (inactive) in the assay with OVCAR-3; 1.18 µM (inactive) with SF-268.
For `O=S(=O)(O)c1ccc([Se][Se]c2ccc(S(=O)(=O)O)cc2)cc1`, the GI50 in the assay on SNB-75, in the assay on SNB-19, in the assay on SF-539, with CAKI-1, in the assay with HOP-92 and in the assay with 786-0 was > 100 µM (inactive) each time. The GI50 with K562, in the assay on M14, in the assay with NCI-H460, in the assay on UO-31, in the assay on MOLT-4 and with IGROV-1 was > 100 µM (inactive) each time. Besides, the GI50 in the assay on HCC 2998, in the assay with UACC-62, in the assay on OVCAR-5, with HT-29, in the assay on OVCAR-3 and in the assay on SF-268 was > 100 µM (inactive) throughout.
With `COC(=O)C1C2C=CC(C2)N1[C@@H](C)c1ccccc1` (stereo partly specified), the GI50 with SNB-75, with SNB-19, with SF-539, in the assay with CAKI-1, in the assay with HOP-92 and in the assay on 786-0 was > 100 µM (inactive) each time. Besides, the GI50 in the assay on K562, with M14, in the assay on NCI-H460, in the assay with UO-31, in the assay on IGROV-1 and with HCC 2998 was > 100 µM (inactive) each time. The GI50 with UACC-62, with OVCAR-5, in the assay with HT-29, in the assay with OVCAR-3 and in the assay on SF-268 was > 100 µM (inactive) each time.
